According to patent publication EP2121694B1, “CYCLOPROPYL FUSED INDOLOBENZAZEPINE HCV NS5B INHIBITORS” (Bristol-Myers Squibb Company, priority 2007, dated 2008):
pEC50, pIC50: −log10 of the molar value. Like-named read-outs stand apart in the source and are kept apart here.

What was measured:
[1] = tested on: HCV replicon; assay: HCV FRET screening assay in HCV replicon cells; assay type: cell-based; conditions: Hepatitis C virus
Description: FRET Assay Preparation. To perform the HCV FRET screening assay, 96-well cell culture plates were used. The FRET peptide (Anaspec, Inc.) (Taliani et al., Anal. Biochem. 1996, 240, 60-67) contains a fluorescence donor, EDANS, near one end of the peptide and an acceptor, DABCYL, near the other end. The fluorescence of the peptide is quenched by […] resonance energy transfer (RET) between the donor and the acceptor, but as the NS3 protease cleaves the peptide the products are released from RET quenching and the fluorescence of the donor becomes apparent. The assay reagent was made as follows: 5X cell Luciferase cell culture lysis reagent from Promega (#E153A) diluted to 1X with dH2O, NaCl added to 150 mM final, the FRET peptide diluted to 20 uM final from a 2 mM stock.
To prepare plates, HCV replicon cells, with or without a Renilla luciferase reporter gene, were trypsinized and placed into each well of a 96-well plate with titrated test compounds added in columns 3 through 12; columns 1 and 2 contained a control compound (HCV protease inhibitor), and the bottom row contained cells without compound. The plates were then placed in a CO2 incubator at 37 °C.
Assays. Subsequent to addition of the test compounds described above (FRET Assay Preparation), at various times the plate was removed and Alamar blue solution (Trek Diagnostics, #00-100) was added per well as a measure of cellular toxicity. After reading in a Cytoflour 4000 instrument (PE Biosystems), plates were rinsed with PBS and then used for FRET assay by the addition of 30 ul of the FRET peptide assay reagent described above (FRET Assay Preparation) per well. The plate was then placed into the Cytoflour 4000 instrument which had been set to 340 excite/490 emission, automatic mode for 20 cycles and the plate read in a kinetic mode. Typically, the signal to noise using an endpoint analysis after the reads was at least three-fold. Alternatively, after Alamar blue reading, plates were rinsed with PBS, 50 ul of DMEM (high glucose) without phenol red was added and plates were then used for luciferase assay using the Promega Dual-Glo Luciferase Assay System.
Compound analysis was determined by quantification of the relative HCV replicon inhibition and the relative cytotoxicity values. To calculate cytoxicity values, the average Alamar Blue fluorescence signals from the control wells were set as 100% non-toxic. The individual signals in each of the compound test wells were then divided by the average control signal and multiplied by 100% to determine […]. To calculate the HCV replicon inhibition values, an average background value was obtained from the two wells containing the highest amount of HCV protease inhibitor at the end of the assay period. These numbers were similar to those obtained from naïve Huh-7 cells.
The background numbers were then subtracted from the average signal obtained from the control wells and this number was used as 100% activity. The individual signals in each of the compound test wells were then divided by the averaged control values after background subtraction and multiplied by 100% to determine percent activity. EC50 values for a protease inhibitor titration were calculated as the concentration which caused a 50% reduction in FRET or luciferase activity. The two numbers generated for the compound plate, percent cytoxicity and percent activity were used to determine compounds of interest for further analysis.

[2] = target: T1, HCV NS5B (Hepatitis C virus genotype 1b, UniProt Q9WMX2); assay: Modified HCV NS5B RdRp enzyme assay (preincubation protocol); assay type: biochemical; conditions: HCV NS5B RdRp genotype 1b
T1 construct: The protein was expressed with an 18 amino acid C-terminal truncation to enhance the solubility; made in house; host or cells: E. coli BL21(DE3), pET21a vector
Description: HCV NS5B RdRp cloning, expression, and purification. The cDNA encoding the NS5B protein of HCV, genotype 1b, was cloned into the pET21a expression vector. The protein was expressed with an 18 amino acid C-terminal truncation to enhance the solubility. The E. coli competent cell line BL21(DE3) was used for expression of the protein. Cultures were grown at 37 °C for ∼ 4 hours until the cultures reached an optical density of 2.0 at 600 nm. The cultures were cooled to 20 °C and induced with 1 mM IPTG. Fresh ampicillin was added to a final concentration of 50 µg/ml and the cells were grown overnight at 20 °C.
Cell pellets (3L) were lysed for purification to yield 15-24 mgs of purified NS5B. The lysis buffer consisted of 20 mM Tris-HCl, pH 7.4, 500 mM NaCl, 0.5% triton X-100, 1 mM DTT, 1mM EDTA, 20% glycerol, 0.5 mg/ml lysozyme, 10 mM MgCl2, 15 ug/ml deoxyribonuclease I, and Complete TM protease inhibitor tablets (Roche). After addition of the lysis buffer, frozen cell pellets were resuspended using a tissue homogenizer. To reduce the viscosity of the sample, aliquots of the lysate were sonicated on ice using a microtip attached to a Branson sonicator. The sonicated lysate was centrifuged at 100,000 x g for 1hr at 4 °C and filtered through a 0.2 µm filter unit (Corning).
The protein was purified using three sequential chromatography steps: Heparin sepharose CL-6B, polyU sepharose 4B, and Hitrap SP sepharose (Pharmacia). The chromatography buffers were identical to the lysis buffer but contained no lysozyme, deoxyribonuclease I, MgCl2 or protease inhibitor and the NaCl concentration of the buffer was adjusted according to the requirements for charging the protein onto the column. Each column was eluted with a NaCl gradient which varied in length from 5-50 column volumes depending on the column type. After the final chromatography step, the resulting purity of the enzyme is >90% based on SDS-PAGE analysis. The enzyme was aliquoted and stored at -80 °C.
Standard HCV NS5B RdRp enzyme assay. HCV RdRp genotype 1b assays were run in a final volume of 60 µl in 96 well plates (Costar 3912). The assay buffer is composed of 20 mM Hepes, pH 7.5, 2.5 mM KCl, 2.5 mM MgCl2, 1 mM DTT, 1.6 U RNAse inhibitor (Promega N2515), 0.1 mg/ml BSA (Promega R3961), and 2 % glycerol. All compounds were serially diluted (3-fold) in DMSO and diluted further in water such that the final concentration of DMSO in the assay was 2%. HCV RdRp genotype 1b enzyme was used at a final concentration of 28 nM. A polyA template was used at 6 nM, and a biotinylated oligo-dT12 primer was used at 180 nM final concentration. Template was obtained commercially (Amersham 27-4110). Biotinylated primer was prepared by Sigma Genosys. 3H-UTP was used at 0.6 µCi (0.29 µM total UTP). Reactions were initiated by the addition of enzyme, incubated at 30 °C for 60 min, and stopped by adding 25 µl of 50 mM EDTA containing SPA beads (4 µg/µl, Amersham RPNQ 0007). Plates were read on a Packard Top Count NXT after >1hr incubation at room temperature.
Modified HCV NS5B RdRp enzyme assay. A modified enzyme assay was performed essentially as described for the standard enzyme assay except for the following: The biotinylated oligo dT12 primer was precaptured on streptavidin-coated SPA beads by mixing primer and beads in assay buffer and incubating at room temperature for one hour. Unbound primer was removed after centrifugation. The primer-bound beads were resuspended in 20 mM Hepes buffer, pH 7.5 and used in the assay at final concentrations of 20 nM primer and 0.67 µg/µl beads. Order of addition in the assay: enzyme (14 nM) was added to diluted compound followed by the addition of a mixture of template (0.2 nM) , 3H-UTP (0.6 µCi, 0.29 µM), and primer-bound beads, to initiate the reaction; concentrations given are final. Reactions were allowed to proceed for 4 hours at 30° C.
IC50 values for compounds were determined using seven different [I]. […]

[3] = HCV replicon cells, FRET assay, read-out: EC50

T1 sequence (Q9WMX2 2420-2992): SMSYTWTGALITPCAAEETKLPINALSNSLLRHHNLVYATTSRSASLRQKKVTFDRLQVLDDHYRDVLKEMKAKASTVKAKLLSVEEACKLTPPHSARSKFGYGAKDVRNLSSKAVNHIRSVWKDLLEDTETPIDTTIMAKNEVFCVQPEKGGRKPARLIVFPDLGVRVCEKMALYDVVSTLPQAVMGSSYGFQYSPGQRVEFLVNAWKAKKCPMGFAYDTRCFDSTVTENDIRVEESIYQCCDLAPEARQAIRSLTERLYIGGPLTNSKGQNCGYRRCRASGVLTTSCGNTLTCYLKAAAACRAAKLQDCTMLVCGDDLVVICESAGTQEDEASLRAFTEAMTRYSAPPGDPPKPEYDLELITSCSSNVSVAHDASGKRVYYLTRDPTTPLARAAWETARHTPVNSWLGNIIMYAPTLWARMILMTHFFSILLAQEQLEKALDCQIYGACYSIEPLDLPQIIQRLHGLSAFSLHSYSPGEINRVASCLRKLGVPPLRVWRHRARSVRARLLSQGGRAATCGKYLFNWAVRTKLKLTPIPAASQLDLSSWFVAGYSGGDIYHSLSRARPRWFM

Row | SMILES | pEC50 [1, 3] | pIC50 [2] | pEC50 [1]
1 | CCN(CC)CCN(C)C(=O)C12CC1c1cc(OC)ccc1-c1c(C3CCCCC3)c3ccc(C(=O)NS(=O)(=O)N(C)C)cc3n1C2 (stereo not drawn) | 6.00 to 7.01 | 6.00 to 7.01 | 
2 | CCN(CC)CCN1CCCN(C(=O)C23CC2c2cc(OC)ccc2-c2c(C4CCCCC4)c4ccc(C(=O)NS(=O)(=O)N(C)C)cc4n2C3)CC1 (stereo not drawn) | 6.00 to 7.01 | 6.00 to 7.01 | 
3 | COc1ccc2c(c1)C1CC1(C(=O)O)Cn1c-2c(C2CCCCC2)c2ccc(C(=O)OC(C)(C)C)cc21 (stereo not drawn) |  | 5.00 to 6.00 | 
4 | COc1ccc2c(c1)C1CC1(C(=O)N1CCCCC1CN(C)C)Cn1c-2c(C2CCCCC2)c2ccc(C(=O)NS(=O)(=O)N(C)C)cc21 (stereo not drawn) [drawing 49] | 6.00 to 7.01 | 6.00 to 7.01 | 
5 | COc1ccc2c(c1)C1CC1(C(=O)N1CCCN(C)CC1)Cn1c-2c(C2CCCCC2)c2ccc(C(=O)NS(=O)(=O)N(C)C)cc21 (stereo not drawn) [drawing 58] | 6.00 to 7.01 | 6.00 to 7.01 | 
6 | COc1ccc2c(c1)C1CC1(C(=O)N1CCOC[C@H]1C)Cn1c-2c(C2CCCCC2)c2ccc(C(=O)NS(=O)(=O)N(C)C)cc21 (stereo partly drawn) | 6.00 to 7.01 | 6.00 to 7.01 | 
7 | COc1ccc2c(c1)C1CC1(C(=O)N1CC[C@H](N(C)C)C1)Cn1c-2c(C2CCCCC2)c2ccc(C(=O)NS(=O)(=O)N(C)C)cc21 (stereo partly drawn) | 6.00 to 7.01 | 6.00 to 7.01 | 
8 | COc1ccc2c(c1)[C@H]1C[C@@]1(C(=O)O)Cn1c-2c(C2CCCCC2)c2ccc(C(=O)NS(=O)(=O)N(C)C)cc21 |  | 6.00 to 7.01 | 5.00 to 6.00
9 | COc1ccc2c(c1)C1CC1(C(=O)N1CCCN(C)CC1)Cn1c-2c(C2CCCCC2)c2ccc(C(=O)NS(=O)(=O)C(C)C)cc21 (stereo not drawn) | < 6.92 | 6.00 to 7.01 | 
10 | COc1ccc2c(c1)C1CC1(C(=O)N1CCCCC1CN(C)C)Cn1c-2c(C2CCCCC2)c2ccc(C(=O)NS(=O)(=O)N(C)C)cc21 (stereo not drawn) [drawing 50] |  | 6.00 to 7.01 | 
11 | COc1ccc2c(c1)C1CC1(C(=O)N1CC[C@H](N(C)C)C1)Cn1c-2c(C2CCCCC2)c2ccc(C(=O)NS(=O)(=O)C3CC3)cc21 (stereo partly drawn) | 6.00 to 7.01 | 6.00 to 7.01 | 
12 | C[C@@H]1CN(C(=O)C23CC2c2c(OC(F)(F)F)cccc2-c2c(C4CCCCC4)c4ccc(C(=O)NS(=O)(=O)N(C)C)cc4n2C3)C[C@H](C)O1 (stereo partly drawn) | 6.00 to 7.01 | 6.00 to 7.01 | 
13 | COc1ccc2c(c1)C1CC1(C(=O)N1CCCN(C)CC1)Cn1c-2c(C2CCCCC2)c2ccc(C(=O)NS(=O)(=O)N(C)C)cc21 (stereo not drawn) [drawing 65] |  | 6.00 to 7.01 | 
14 | COc1ccc2c(c1)C1CC1(C(=O)N1CCC(C)(O)CC1)Cn1c-2c(C2CCCCC2)c2ccc(C(=O)NS(=O)(=O)N(C)C)cc21 (stereo not drawn) | 6.00 to 7.01 | 6.00 to 7.01 | 
15 | COc1ccc2c(c1)C1CC1(C(=O)N1CCOC[C@H]1CO)Cn1c-2c(C2CCCCC2)c2ccc(C(=O)NS(=O)(=O)N(C)C)cc21 (stereo partly drawn) | 6.00 to 7.01 | 6.00 to 7.01 | 
16 | COc1ccc2c(c1)C1CC1(C(=O)N1CCN(c3ccccn3)CC1)Cn1c-2c(C2CCCCC2)c2ccc(C(=O)NS(=O)(=O)C3CC3)cc21 (stereo not drawn) | 6.00 to 7.01 | 6.00 to 7.01 | 

Row | SMILES | pEC50 [1, 3] | pIC50 [2] | pEC50 [1]
17 | COc1ccc2c(c1)C1CC1(C(=O)N(C)CCN(C)C)Cn1c-2c(C2CCCCC2)c2ccc(C(=O)NS(=O)(=O)N(C)C)cc21 (stereo not drawn) | 6.00 to 7.01 | 6.00 to 7.01 | 
18 | COC(=O)C12CC1c1cc(O)ccc1-c1c(C3CCCCC3)c3ccc(C(=O)OC(C)(C)C)cc3n1C2 (stereo not drawn) | < 6.00 | 5.00 to 6.00 | 
19 | COc1cccc2c1C1CC1(C(=O)N1C[C@@H](C)N[C@@H](C)C1)Cn1c-2c(C2CCCCC2)c2ccc(C(=O)NS(=O)(=O)N(C)C)cc21 (stereo partly drawn) | 6.00 to 7.01 | 6.00 to 7.01 | 
20 | COC(=O)c1ccc2c(C3CCCCC3)c3n(c2c1)CC1(C(=O)N2CC(C)OC(C)C2)CC1c1c(OC(F)(F)F)cccc1-3 (stereo not drawn) |  | 5.00 to 6.00 | 
21 | COC(=O)C12CC1c1cc(OC)ccc1-c1c(C3CCCCC3)c3ccc(C(=O)NS(=O)(=O)C(C)C)cc3n1C2 (stereo not drawn) |  | 6.00 to 7.01 | 
22 | COc1ccc2c(c1)C1CC1(C(=O)N1CCC(F)(F)CC1)Cn1c-2c(C2CCCCC2)c2ccc(C(=O)NS(=O)(=O)N(C)C)cc21 (stereo not drawn) | 6.00 to 7.01 | 6.00 to 7.01 | 
23 | COc1ccc2c(c1)C1CC1(C(=O)O)Cn1c-2c(C2CCCCC2)c2ccc(C(=O)NS(=O)(=O)C3CC3)cc21 (stereo not drawn) |  | 6.00 to 7.01 | 
24 | COc1ccc2c(c1)C1CC1(C(=O)N1CCCN(C)CC1)Cn1c-2c(C2CCCCC2)c2ccc(C(=O)NS(=O)(=O)N3CCC3)cc21 (stereo not drawn) |  | 6.00 to 7.01 | 
25 | COc1ccc2c(c1)C1CC1(C(=O)N1CCC(C)(O)CC1)Cn1c-2c(C2CCCCC2)c2ccc(C(=O)NS(=O)(=O)C3CC3)cc21 (stereo not drawn) |  | 6.00 to 7.01 | 
26 | COC(=O)c1ccc2c(C3CCCCC3)c3n(c2c1)CC1(C(=O)O)CC1c1c(OC(F)(F)F)cccc1-3 (stereo not drawn) |  | 5.00 to 6.00 | 
27 | COC(=O)C12CC1c1cc(OC)ccc1-c1c(C3CCCCC3)c3ccc(C(=O)NS(N)(=O)=O)cc3n1C2 (stereo not drawn) |  | 6.00 to 7.01 | 
28 | COc1ccc2c(c1)C1CC1(C(=O)O)Cn1c-2c(C2CCCCC2)c2ccc(C(=O)NS(N)(=O)=O)cc21 (stereo not drawn) |  | 6.00 to 7.01 | 
29 | CCC(CC)N1CCN(C(=O)C23CC2c2cc(OC)ccc2-c2c(C4CCCCC4)c4ccc(C(=O)NS(=O)(=O)N(C)C)cc4n2C3)CC1 (stereo not drawn) [drawing 39] |  | 6.00 to 7.01 | 
30 | CCC(CC)N1CCN(C(=O)C23CC2c2cc(OC)ccc2-c2c(C4CCCCC4)c4ccc(C(=O)NS(=O)(=O)N(C)C)cc4n2C3)CC1 (stereo not drawn) [drawing 37] |  | 6.00 to 7.01 | 
31 | COc1ccc2c(c1)C1CC1(C(=O)O)Cn1c-2c(C2CCCCC2)c2ccc(C(=O)NS(=O)(=O)C(C)C)cc21 (stereo not drawn) |  | 6.00 to 7.01 | 
